Experimental data from US11142524B2, “Substituted-3H-imidazo[4,5-c]pyridine and 1H-pyrrolo[2,3-c]pyridine series of novel Ectonucleotide Pyrophosphatase/Phosphodiesterase-1 (ENPP1) and stimulator for interferon genes (STING) modulators as cancer immunotherapeutics” (Stingray Therapeutics, Inc., priority 2018, dated 2021).
Structures can show the parent of a compound that is named as a salt. Where two headings read alike, the source gives them in different places.

Assays:
ENPP1 protein [1] = biological target: T1, ENPP1 protein (Homo sapiens (Human), UniProt P22413); assay: ENPP1 Thermal Shift Assay (Example 1); format: binding
Method: Assay Buffer (1 mM CaCl2, 0.2 mM ZnCl2, 50 mM Tris, pH 9.0) 5000×SYPRO Orange (ThermoFisher cat #S6651) 384-well PCR Plates
Each drug was prepared as a 10× solution in the assay buffer and SYPRO Orange was diluted to 10× concentration in water. Wells were set up in duplicate in a 384-well PCR plate as follows: 14 μL assay buffer, 2 μL ENPP1 Inhibitor or DMSO, 2 μL (0.5 μg) ENPP1 protein. Each well was mixed and incubated on ice for 5 minutes. Post incubation, 2 μL of SYPRO Orange was mixed into each well and followed by a gentle centrifugation. The protein melt reaction was run using ViiA7 software with temperatures beginning at 25° C. and increasing by 0.05° C./s to the maximum temperature of 99° C.
In a 384-well plate, 1.0 μg of ENPP1 protein incubated with 100 μM of the corresponding drug for 5 minutes. Each well exposed to increasing temperatures to determine an unfolding temperature of the protein.

[2] = biological target: T2, Recombinant Human ENPP-1 Protein (purified in-house) (Homo sapiens (Human), UniProt P22413); assay: ENPP1 Assay (TMP), Example 2; format: biochemical
Method: Enzyme: 1 ng/μL Recombinant Human ENPP-1 Protein (purified in-house)—Assay Conc.: 5 ng/well of DMSO in 96-well clear assay plates.
(§1) A ten point serial dilution of drugs was prepared in 10× in assay buffer with the final assay concentrations starting at 10 μM, 3 μM, 1 μM, 0.3 μM . . . 0 μM. A dilution of DMSO was included as a control. The assay plate was set up as follows with each well in duplicate: 75 μL assay buffer+10 μL ENPP1 inhibitor or DMSO Dilutions+10 μL Substrate+5 μL Enzyme (5 ng). Both the enzyme and substrate were added to opposite sides of the well to ensure that there was no interaction until all wells had both components. The plate was then centrifuged gently for 10 seconds, followed by an incubation at 37° C. for 45 minutes. The reaction was quantified by measuring absorbance at 405 nm using the Envision Plate Reader.

Saos-2 Cells = assay: ENPP1 Mineralization Assay; format: cell-based
Method: Saos-2 Cells (ATCC CAT #HTB-85). Culture Medium. 24-well Tissue Culture Plate. Ascorbic Acid, 5 mg/mL (100×). β-Glycerophosphate, 1M (100×). Phosphate Buffered Saline. Alizarin Red, 40 mM pH 4.2. 70% Ethanol. Dye Extraction Reagent, 10% Methanol+10% Acetic Acid
Saos-2 cells were plated at a density of 1.5×10^6 cells/well and allowed to grow to 100% confluency over the following 1-2 days. Once completely confluent, the media was replaced with fresh media supplemented with 1× ascorbic acid, 1× β-glycerophosphate, and varying concentrations of ENPP1 inhibitor (if applicable). The addition of the mineralization components was considered Day 1. On Day 3, the media was gently aspirated with no wash followed by the addition of fresh media, mineralization components, and ENPP1 inhibitor (if applicable). On day 5, the media was gently aspirated and the cells were washed twice with PBS. The cells were then fixed with ice cold 70% ethanol for 1 hour at 4° C. Cells were washed once with PBS and stained with Alizarin Red for 30 minutes at room temperature with gentle rotation. Stained cells were washed three times with water for 10 minutes at room temperature with gentle rotation. After imaging cells, dye extraction reagent was added to each well and incubated for 30 minutes at room temperature. Alizarin red was quantified by measuring absorbance at a wavelength of 405 nm using the Envision.
FIG. 9 depicts a picture of results of a similar SAOS-2 mineralization assay. SAOS-2 cell were cultured in the presence and absence of ENPP1 inhibitor (compound 78, 107-02 or 108) and exposed to mineralization components for 3 days.

[3] = biological target: T2, Recombinant Human ENPP-1 Protein (purified in-house); assay: ENPP1 Assay (ATP), Example 2; format: biochemical
Method: Assay Buffer: 1 mM CaCl2, 0.2 mM ZnCl2, 50 mM Tris, pH 9.0. Substrate: 100 μM Adenosine 5′-triphosphate disodium salt hydrate (Promega: V703A)—Assay Conc.: 10 μM. Enzyme: 1 ng/μL Recombinant Human ENPP-1 Protein (purified in-house)—Assay Conc.: 5 ng/well of DMSO in 96-well white assay plates. Cell Titer Glo (Promega, cat #G7572).
as §1, with “by” for “by an”, “RT” for “37° C.”, “20 minutes. To detect levels of ATP, Cell Titer Glo was added 1:1 to each well and incubated for 10” for “45”, “luminescence” for “absorbance at 405 nm”

ENPP1 protein [4] = biological target: T1, ENPP1 protein; assay: ENPP1 Inhibition Assay (thymidine 5′-monophosphate p-nitrophenol ester substrate); format: biochemical
Method: Assay Buffer: 1 mM CaCl2, 0.2 mM ZnCl2, 50 mM Tris, pH 9.0. Substrate: 8 mM Thymidine 5′-monophosphate p-nitrophenol ester sodium salt (Sigma Cat #T4510). Enzyme: 5 ng/L Recombinant Human ENPP-1 Protein (R&D Cat #6136-EN-010) in DMSO in 96-well clear assay plates
as §1, with “An eight” for “A ten”, “81” for “75”, “DMSO+5” for “DMSO Dilutions+10”, “Substrate+4” for “Substrate+5”, “Enzyme.” for “Enzyme (5 ng).”, “Envision.” for “Envision Plate Reader.”
IC50 values are determined using GraphPad Prism 5 software. The data were entered as an X-Y plot into the software as percent inhibition for each concentration of the drug. The concentration values of the drug were log transformed and the nonlinear regression was carried out using the “sigmoidal dose-response (variable slope)” option within the GraphPad software to model the data and calculate IC50 values. The IC50 values reported are the concentration of drug at which 50% inhibition was reached.

[5] = FIG. 5A, TMP substrate, read-out: IC50
[6] = Table 5, TMP substrate, read-out: ENPP1 (IC50 μM) TMP
[7] = FIG. 5B, ATP substrate, read-out: IC50
[8] = Table 5, ATP substrate, read-out: ENPP1 (IC50 μM) ATP

T1 sequence (P22413 whole entry, looked up, change not shown): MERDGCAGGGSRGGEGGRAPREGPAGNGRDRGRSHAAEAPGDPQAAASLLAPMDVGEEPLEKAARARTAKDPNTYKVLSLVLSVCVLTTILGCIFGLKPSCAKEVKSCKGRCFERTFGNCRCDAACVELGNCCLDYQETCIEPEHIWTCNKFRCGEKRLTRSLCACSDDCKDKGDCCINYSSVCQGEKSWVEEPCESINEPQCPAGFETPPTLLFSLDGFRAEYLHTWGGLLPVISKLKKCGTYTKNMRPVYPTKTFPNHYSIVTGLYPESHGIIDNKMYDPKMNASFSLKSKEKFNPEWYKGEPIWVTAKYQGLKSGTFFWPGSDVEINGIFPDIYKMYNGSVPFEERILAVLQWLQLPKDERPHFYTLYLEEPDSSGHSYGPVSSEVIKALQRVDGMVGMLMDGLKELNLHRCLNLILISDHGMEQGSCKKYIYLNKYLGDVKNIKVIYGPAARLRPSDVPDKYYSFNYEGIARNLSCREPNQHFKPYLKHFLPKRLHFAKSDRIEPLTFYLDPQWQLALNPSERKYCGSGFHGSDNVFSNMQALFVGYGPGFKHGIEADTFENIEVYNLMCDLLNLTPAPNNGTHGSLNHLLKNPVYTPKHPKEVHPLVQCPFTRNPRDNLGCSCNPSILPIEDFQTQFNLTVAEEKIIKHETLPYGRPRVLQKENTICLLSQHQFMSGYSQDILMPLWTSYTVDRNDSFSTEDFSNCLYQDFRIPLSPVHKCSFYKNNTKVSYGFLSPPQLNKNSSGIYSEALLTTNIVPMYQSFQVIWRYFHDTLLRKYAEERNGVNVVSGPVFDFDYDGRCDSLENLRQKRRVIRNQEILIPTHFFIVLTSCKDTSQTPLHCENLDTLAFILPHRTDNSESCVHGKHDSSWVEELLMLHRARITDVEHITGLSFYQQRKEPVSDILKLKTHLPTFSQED
T2 sequence (P22413 whole entry, looked up): as the sequence (P22413 whole entry, looked up, change not shown) above

Row | SMILES | IC50 [2, 6] [µM] | IC50 [3, 8] [µM] | other results
1 | COc1cc(NC(=O)CSc2nc3c(C)c(C#N)ncc3[nH]2)ccc1OP(=O)([O-])[O-].[Na+].[Na+] [Compound 108, sodium 4-(2-((6-Cyano-7-methyl-3H-imidazo[4,5-c]pyridin-2-yl)thio)acetamido)-2-methoxyphenyl phosphate] | 2.04 | 0.339 | Tm (° C.) (ENPP1 protein [1]; Table 2, FIG. 7, 100 μM drug, 1.0 μg ENPP1, NT 60.05): 63.60 °C; ΔTm at 100 µM (ENPP1 protein [1]; read-out: ΔTm (° C.)): 3.54 °C; IC50 [2, 5]: 2.04 µM; total mineralization (Saos-2 Cells; FIG. 9, mineralization components for 3 days): significant decrease; IC50 [3, 7]: 0.339 µM
2 | Cc1c(C#N)ncc2[nH]c(SCC(=O)Nc3ccc(F)c(OCCO)c3)nc12 [Compound 110, 2-((6-cyano-7-methyl-3H-imidazo[4,5-c]pyridin-2-yl)thio)-N-(4-fluoro-3-(2-hydroxyethoxy)phenyl)acetamide] | > 50 | – | –
3 | COc1ccc(NC(=O)CSc2nc3c(C)c(C#N)ncc3[nH]2)cc1N[C@H]1CC[C@H](N)CC1 [Compound 114, N-(3-(((1r,4r)-4-aminocyclohexyl)amino)-4-methoxyphenyl)-2-((6-cyano-7-methyl-3H-imidazo[4,5-c]pyridin-2-yl)thio)acetamide hydrogen chloride] | > 50 | > 50 | –
4 | COc1ccc(NC(=O)CSc2nc3c(C)c(C#N)ncc3[nH]2)cc1OCCO [Compound 109, 2-((6-cyano-7-methyl-3H-imidazo[4,5-c]pyridin-2-yl)thio)-N-(3-(2-hydroxyethoxy)-4-methoxyphenyl)acetamide] | 3.61 | 3.26 | –
5 | O=C(CSc1nc2cc(Cl)ncc2[nH]1)Nc1ccc2c(c1)OCO2 [Compound 7, N-(benzo[d][1,3]dioxol-5-yl)-2-((6-chloro-1H-imidazo[4,5-c]pyridin-2-yl)thio)acetamide] | – | – | IC50 (ENPP1 protein [4]; Tables 3 and 4, read-out: ENPP1 inhibition (IC50)): > 50000 nM
6 | COc1nc(NC(=O)CSc2nc3c(C)c(C#N)ncc3[nH]2)ccc1O [Compound 96, 2-((6-cyano-7-methyl-3H-imidazo[4,5-c]pyridin-2-yl)thio)-N-(5-hydroxy-6-methoxypyridin-2-yl)acetamide] | > 50 | – | –
7 | Cc1c(C#N)ncc2[nH]c(SCC(=O)Nc3ccc(F)c(S(N)(=O)=O)c3)nc12 [Compound 104, 2-((6-cyano-7-methyl-3H-imidazo[4,5-c]pyridin-2-yl)thio)-N-(4-fluoro-3-sulfamoylphenyl)acetamide] | 2.85 | – | –
8 | COc1ccc(NC(=O)c2cnc(CSc3nc4c(C)c(C#N)ncc4[nH]3)s2)cc1O [Compound 115, sodium 5-(2-(((6-cyano-7-methyl-3H-imidazo[4,5-c]pyridin-2-yl)thio)methyl)thiazole-5-carboxamido)-2-methoxyphenolate] | 1.61 | 0.196 | IC50 [2, 5]: 1.61 µM; IC50 [3, 7]: 0.191 µM
9 | COc1ccc(NC(=O)CSc2nc3c(C)c(C#N)ncc3[nH]2)cc1O[C@H]1CC[C@H](N)CC1 [Compound 113, N-(3-(((1r,4r)-4-aminocyclohexyl)oxy)-4-methoxyphenyl)-2-((6-cyano-7-methyl-3H-imidazo[4,5-c]pyridin-2-yl)thio)acetamide Hydrochloride] | 22.2 | – | –
10 | COc1ccc(NC(=O)CSc2nc3c(C)c(C#N)ncc3[nH]2)cc1N1CCC(O)CC1 [Compound 112, 2-((6-cyano-7-methyl-3H-imidazo[4,5-c]pyridin-2-yl)thio)-N-(3-(4-hydroxypiperidin-1-yl)-4-methoxyphenyl)acetamide hydrochloride] | > 50 | > 50 | –
11 | COc1ccc(NC(=O)CSc2nc3c(C)c(C#N)ncc3[nH]2)cc1OCC1CCN(C)CC1 [Compound 111, 2-((6-cyano-7-methyl-3H-imidazo[4,5-c]pyridin-2-yl)thio)-N-(4-methoxy-3-((1-methylpiperidin-4-yl)methoxy)phenyl)acetamide hydrochloride] | 22.3 | – | –
12 | COc1ccc(NC(=O)CSc2nc3c(C)c(C#N)ncc3[nH]2)cc1OP(=O)(O)O [Compound 107, Sodium 5-(2-((6-cyano-7-methyl-3H-imidazo[4,5-c]pyridin-2-yl)thio)acetamido)-2-methoxyphenyl phosphate] | – | – | IC50 [2, 5]: 0.232 µM; IC50 ([2]; Table 5, TMP substrate, phosphate, read-out: ENPP1 (IC50 μM) TMP): 0.231 µM; IC50 [3, 7]: 0.116 µM; IC50 ([3]; Table 5, ATP substrate, phosphate, read-out: ENPP1 (IC50 μM) ATP): 0.116 µM
13 | COc1ccc(NC(=O)CSc2nc3c(C)c(C#N)ncc3[nH]2)cc1S(C)(=O)=O [Compound 103, 2-((6-cyano-7-methyl-3H-imidazo[4,5-c]pyridin-2-yl)thio)-N-(4-methoxy-3-(methylsulfonyl)phenyl)acetamide] | > 50 | – | –
14 | COc1ccc(NC(=O)CSc2nc3cc(C#N)ncc3[nH]2)cc1OC [Compound 68, 2-((6-Cyano-3H-imidazo[4,5-c]pyridin-2-yl)thio)-N-(3,4-dimethoxyphenyl)acetamide] | – | – | inhibiting the activity of ENPP1 (ENPP1 protein [4]; FIG. 1): effective; IC50 (ENPP1 protein [4]; Table 1, FIG. 1, read-out: IC50): 114 nM; inhibiting ENPP1 ability to produce mineralized nodules (Saos-2 Cells; FIG. 4, normalized against DMSO control): effective
